As a reminder, the Emax is the size of the effect at its maximum, as opposed to the concentration needed.

Among the data in patent US20260176320A1, “MODULATORS OF G-PROTEIN COUPLED RECEPTORS” (priority 2018, published 2026) are EC50 and Emax values, retold here.

Like-named read-outs stand apart in the source and are kept apart here. Where only a bound is given, the exact number is not on record here.

What all share (assay type): cell-based
In experiment [1] the target is T1, GLP-1R (Homo sapiens, UniProt P43220). Put plainly: HitHunter cAMP assay (GLP-1R). The settings on record: cAMP; for Emax: read-out: (Emax) GLP-1R. Put shortly: (§1)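 Cells were resuspended in HBSS plus HEPES, IBMX (625 μM) and BSA, then dispensed with antibody at 10,000 per well. Agonists followed as 22-point twofold series, 30 min at room temperature. Antibody reagent and detection steps ran 1 h and overnight in the dark before luminescence.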
(In general: Cyclic AMP is a second messenger, typically raised through Gs and lowered through Gi signalling.)

A further experiment deals with T2, GIP-R (Homo sapiens, UniProt P48546).
T2 sequence (P48546 22-466): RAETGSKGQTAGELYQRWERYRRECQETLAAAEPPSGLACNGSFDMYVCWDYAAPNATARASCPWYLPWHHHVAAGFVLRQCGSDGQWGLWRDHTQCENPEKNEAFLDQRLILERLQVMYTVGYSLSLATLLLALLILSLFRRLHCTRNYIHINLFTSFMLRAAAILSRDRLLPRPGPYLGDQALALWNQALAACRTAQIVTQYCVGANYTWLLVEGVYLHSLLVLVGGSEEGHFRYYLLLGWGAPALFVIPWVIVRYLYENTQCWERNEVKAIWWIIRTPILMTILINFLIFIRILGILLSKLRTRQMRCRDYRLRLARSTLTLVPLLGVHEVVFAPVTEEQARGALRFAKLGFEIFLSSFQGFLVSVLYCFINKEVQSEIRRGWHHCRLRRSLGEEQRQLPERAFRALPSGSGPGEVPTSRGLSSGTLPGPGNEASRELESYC
Kind of experiment: HitHunter cAMP assay (GIP-R). Particulars: cAMP; for Emax: read-out: (Emax) GIP-R. Put shortly: as §1

Experiment [2] concerns the target T1, GLP-1R. Kind of experiment: PathHunter β-arrestin assay. The gist of the method: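 Agonist concentration–response (22 points, 2-fold steps, duplicates) was run on cells plated the previous day in BSA-supplemented (0.2%) medium. Stimulation lasted 90 min at 37 °C, followed by a 3 h dark incubation with detection reagent at room temperature and a luminescence read.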

Setting [3] is: Table 3, read-out: EC50 GLP-1R/nM.
The mark [4] stands for this setting: Table 3A, read-out: EC50 GLP-1R/nM.
[5] abbreviates: Table 3, read-out: EC50 GIP-R/nM.
[6] abbreviates: Table 3A, read-out: EC50 GIP-R/nM.
The mark [7] stands for this setting: PathHunter β-arrestin assay, read-out: β-arrestin activity EC50.

T1 sequence (P43220 24-463): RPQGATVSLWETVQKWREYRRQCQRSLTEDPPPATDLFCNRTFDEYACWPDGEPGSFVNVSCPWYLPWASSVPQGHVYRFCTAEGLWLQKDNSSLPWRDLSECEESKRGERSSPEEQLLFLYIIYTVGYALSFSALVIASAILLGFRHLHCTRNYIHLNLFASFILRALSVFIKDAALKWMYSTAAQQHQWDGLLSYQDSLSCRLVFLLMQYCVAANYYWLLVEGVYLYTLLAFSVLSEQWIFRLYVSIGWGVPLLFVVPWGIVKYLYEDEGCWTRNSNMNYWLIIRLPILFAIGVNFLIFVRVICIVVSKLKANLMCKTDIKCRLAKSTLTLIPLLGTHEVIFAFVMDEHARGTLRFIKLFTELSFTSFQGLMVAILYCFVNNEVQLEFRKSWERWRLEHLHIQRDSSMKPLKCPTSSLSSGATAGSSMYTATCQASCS

Consider `CC[C@H](C)[C@H](NC(=O)[C@H](CO)NC(=O)[C@H](Cc1ccc(O)cc1)NC(=O)[C@H](CC(=O)O)NC(=O)[C@H](CO)NC(=O)[C@@H](NC(=O)[C@H](Cc1ccccc1)NC(=O)[C@@H](NC(=O)CNC(=O)[C@H](CCC(=O)O)NC(=O)CSCC(=O)NCCN1C(=O)c2cc3ccccc3cc2C1=O)[C@@H](C)O)[C@@H](C)O)C(=O)N[C@@H](Cc1ccc(O)cc1)C(=O)N[C@@H](CC(C)C)C(=O)N[C@@H](CC(=O)O)C(=O)N[C@@H](CCCCN)C(=O)N[C@@H](CCC(N)=O)C(=O)N[C@@H](C)C(=O)N[C@@H](C)C(=O)NC(C)(C)C(=O)N[C@@H](CCC(=O)O)C(=O)N[C@@H](Cc1ccccc1)C(=O)N[C@H](C(=O)N[C@@H](CC(N)=O)C(=O)N[C@@H](Cc1c[nH]c2ccccc12)C(=O)N[C@@H](CC(C)C)C(=O)N[C@@H](CC(C)C)C(=O)N[C@@H](C)C(=O)NCC(=O)NCC(=O)N1CCC[C@H]1C(=O)N[C@@H](CO)C(=O)N[C@@H](CO)C(=O)NCC(=O)N[C@@H](C)C(=O)N1CCC[C@H]1C(=O)N1CCC[C@H]1C(=O)N1CCC[C@H]1C(=O)N[C@@H](CO)C(=O)N[C@@H](CCCCN)C(N)=O)C(C)C` [Compound 163], for which the EC50 is 10 to 100 nM on GLP-1R [1] (EC50 GLP-1R/nM, Table 3); 10 to 100 nM at GLP-1R [1] (EC50 GLP-1R/nM, Table 3A); under 0.1 nM on GIP-R (EC50 GIP-R/nM, Table 3); under 0.1 nM at GIP-R (EC50 GIP-R/nM, Table 3A); over 1000 nM at GLP-1R [2]. In addition, the Emax at GLP-1R [1] (Table 3) worked out at 73%; at GLP-1R [1] (Table 3A), 73%; at GIP-R (Table 3), 106%; at GIP-R (Table 3A) it was 106%.
With `CC[C@H](C)[C@H](NC(=O)[C@H](CO)NC(=O)[C@H](Cc1ccc(O)cc1)NC(=O)[C@H](CC(=O)O)NC(=O)[C@H](CO)NC(=O)[C@@H](NC(=O)[C@H](Cc1ccccc1)NC(=O)[C@@H](NC(=O)CNC(=O)[C@H](CCC(=O)O)NC(=O)CSCC(=O)NCCN1C(=O)c2ccc(C(C)(C)C)cc2C1=O)[C@@H](C)O)[C@@H](C)O)C(=O)N[C@@H](Cc1ccc(O)cc1)C(=O)N[C@@H](CC(C)C)C(=O)N[C@@H](CC(=O)O)C(=O)N[C@@H](CCCCN)C(=O)N[C@@H](CCC(N)=O)C(=O)N[C@@H](C)C(=O)N[C@@H](C)C(=O)NC(C)(C)C(=O)N[C@@H](CCC(=O)O)C(=O)N[C@@H](Cc1ccccc1)C(=O)N[C@H](C(=O)N[C@@H](CC(N)=O)C(=O)N[C@@H](Cc1c[nH]c2ccccc12)C(=O)N[C@@H](CC(C)C)C(=O)N[C@@H](CC(C)C)C(=O)N[C@@H](C)C(=O)NCC(=O)NCC(=O)N1CCC[C@H]1C(=O)N[C@@H](CO)C(=O)N[C@@H](CO)C(=O)NCC(=O)N[C@@H](C)C(=O)N1CCC[C@H]1C(=O)N1CCC[C@H]1C(=O)N1CCC[C@H]1C(=O)N[C@@H](CO)C(=O)N[C@@H](CCCCN)C(N)=O)C(C)C` [Compound 164], the EC50 on GLP-1R [1] (EC50 GLP-1R/nM, Table 3) is 10 to 100 nM; on GLP-1R [1] (EC50 GLP-1R/nM, Table 3A) it was 10 to 100 nM; at GIP-R (EC50 GIP-R/nM, Table 3) it was 10 to 100 nM; on GIP-R (EC50 GIP-R/nM, Table 3A), 10 to 100 nM; on GLP-1R [2] it was over 1000 nM. The Emax on GLP-1R [1] (Table 3) is 68%; on GLP-1R [1] (Table 3A) it was 68%; on GIP-R (Table 3), 99 to 105%; at GIP-R (Table 3A), 99 to 105%.
`CC[C@H](C)[C@H](NC(=O)[C@H](CO)NC(=O)[C@H](Cc1ccc(O)cc1)NC(=O)[C@H](CC(=O)O)NC(=O)[C@H](CO)NC(=O)[C@@H](NC(=O)[C@H](Cc1ccccc1)NC(=O)[C@@H](NC(=O)CNC(=O)[C@H](CCC(=O)O)NC(=O)CCCNC(=O)CCN1C(=O)CSC1=O)[C@@H](C)O)[C@@H](C)O)C(=O)N[C@@H](Cc1ccc(O)cc1)C(=O)N[C@@H](CC(C)C)C(=O)N[C@@H](CC(=O)O)C(=O)N[C@@H](CCCCN)C(=O)N[C@@H](CCC(N)=O)C(=O)N[C@@H](C)C(=O)N[C@@H](C)C(=O)NC(C)(C)C(=O)N[C@@H](CCC(=O)O)C(=O)N[C@@H](Cc1ccccc1)C(=O)N[C@H](C(=O)N[C@@H](CC(N)=O)C(=O)N[C@@H](Cc1c[nH]c2ccccc12)C(=O)N[C@@H](CC(C)C)C(=O)N[C@@H](CC(C)C)C(=O)N[C@@H](C)C(=O)NCC(=O)NCC(=O)N1CCC[C@H]1C(=O)N[C@@H](CO)C(=O)N[C@@H](CO)C(=O)NCC(=O)N[C@@H](C)C(=O)N1CCC[C@H]1C(=O)N1CCC[C@H]1C(=O)N1CCC[C@H]1C(=O)N[C@@H](CO)C(=O)N[C@@H](CCCCN)C(N)=O)C(C)C` [Compound 165]: the Emax on GLP-1R [1] (Table 3) is 101 to 106%; on GLP-1R [1] (Table 3A) it was 101 to 106%; on GIP-R (Table 3), 91 to 98%; on GIP-R (Table 3A), 91 to 98%. Besides, the EC50 at GLP-1R [1] (setting [3]) is 0.1 to 1 nM; at GLP-1R [1] (setting [4]) it was 0.1 to 1 nM; on GIP-R (setting [5]) it was 1 to 10 nM; on GIP-R (setting [6]), 1 to 10 nM; on GLP-1R [2] (setting [7]), over 1000 nM.
On to `CC[C@H](C)[C@H](NC(=O)[C@H](CO)NC(=O)[C@H](Cc1ccc(O)cc1)NC(=O)[C@H](CC(=O)O)NC(=O)[C@H](CO)NC(=O)[C@@H](NC(=O)[C@H](Cc1ccccc1)NC(=O)[C@@H](NC(=O)CNC(=O)[C@H](CCC(=O)O)NC(=O)CC(=O)NCCCN1C(=O)CSC1=O)[C@@H](C)O)[C@@H](C)O)C(=O)N[C@@H](Cc1ccc(O)cc1)C(=O)N[C@@H](CC(C)C)C(=O)N[C@@H](CC(=O)O)C(=O)N[C@@H](CCCCN)C(=O)N[C@@H](CCC(N)=O)C(=O)N[C@@H](C)C(=O)N[C@@H](C)C(=O)NC(C)(C)C(=O)N[C@@H](CCC(=O)O)C(=O)N[C@@H](Cc1ccccc1)C(=O)N[C@H](C(=O)N[C@@H](CC(N)=O)C(=O)N[C@@H](Cc1c[nH]c2ccccc12)C(=O)N[C@@H](CC(C)C)C(=O)N[C@@H](CC(C)C)C(=O)N[C@@H](C)C(=O)NCC(=O)NCC(=O)N1CCC[C@H]1C(=O)N[C@@H](CO)C(=O)N[C@@H](CO)C(=O)NCC(=O)N[C@@H](C)C(=O)N1CCC[C@H]1C(=O)N1CCC[C@H]1C(=O)N1CCC[C@H]1C(=O)N[C@@H](CO)C(=O)N[C@@H](CCCCN)C(N)=O)C(C)C` [Compound 166], for which the EC50 at GLP-1R [1] (EC50 GLP-1R/nM, Table 3) was under 0.1 nM; on GLP-1R [1] (EC50 GLP-1R/nM, Table 3A), under 0.1 nM; on GIP-R (read-out: EC50 GIP-R/nM, Table 3), 1 to 100 nM; on GIP-R (read-out: EC50 GIP-R/nM, Table 3A), 1 to 100 nM; on GLP-1R [2], over 1000 nM. The maximal response (Emax) is 109% on GLP-1R [1] (Table 3), 109% on GLP-1R [1] (Table 3A), 77 to 84% on GIP-R (Table 3) and 77 to 84% at GIP-R (Table 3A).
As for `CC[C@H](C)[C@H](NC(=O)[C@H](CO)NC(=O)[C@H](Cc1ccc(O)cc1)NC(=O)[C@H](CC(=O)O)NC(=O)[C@H](CO)NC(=O)[C@@H](NC(=O)[C@H](Cc1ccccc1)NC(=O)[C@@H](NC(=O)CNC(=O)[C@H](CCC(=O)O)NC(=O)/C=C/C(=O)NCCN1C(=O)CSC1=O)[C@@H](C)O)[C@@H](C)O)C(=O)N[C@@H](Cc1ccc(O)cc1)C(=O)N[C@@H](CC(C)C)C(=O)N[C@@H](CC(=O)O)C(=O)N[C@@H](CCCCN)C(=O)N[C@@H](CCC(N)=O)C(=O)N[C@@H](C)C(=O)N[C@@H](C)C(=O)NC(C)(C)C(=O)N[C@@H](CCC(=O)O)C(=O)N[C@@H](Cc1ccccc1)C(=O)N[C@H](C(=O)N[C@@H](CC(N)=O)C(=O)N[C@@H](Cc1c[nH]c2ccccc12)C(=O)N[C@@H](CC(C)C)C(=O)N[C@@H](CC(C)C)C(=O)N[C@@H](C)C(=O)NCC(=O)NCC(=O)N1CCC[C@H]1C(=O)N[C@@H](CO)C(=O)N[C@@H](CO)C(=O)NCC(=O)N[C@@H](C)C(=O)N1CCC[C@H]1C(=O)N1CCC[C@H]1C(=O)N1CCC[C@H]1C(=O)N[C@@H](CO)C(=O)N[C@@H](CCCCN)C(N)=O)C(C)C` [Compound 167], the Emax at GLP-1R [1] (Table 3) and on GLP-1R [1] (Table 3A) was 94 to 99% throughout. Also, the EC50 is 0.1 to 10 nM on GLP-1R [1] (setting [3]); 0.1 to 10 nM on GLP-1R [1] (setting [4]); over 1000 nM on GIP-R (setting [5]); over 1000 nM at GIP-R (setting [6]); over 1000 nM on GLP-1R [2] (setting [7]). Besides, on GIP-R (read-out: (Emax) GIP-R at 1 μM, Table 3, at 1 μM), the maximal effect (Emax) at 1 µM was under 1%.
